{"source": "patent US5872126A", "about": "“Methods and compositions for treating preterm labor” (priority 1997, dated 1999)", "format_in_all_cases": "in vivo, Sprague-Dawley rat", "key": {"[1]": {"test_system": "parturition in the rat", "test": "Parturition with test compound and progesterone antagonist RU-486 (Example 3)", "conditions": "test compound 20 mg/kg/day (Group 3)", "method": "(§1) In order to determine if the effects in the experiments conducted in Examples 1 and 2 were due to decreased progesterone catabolism associated with inhibition of 5α-reductase by the 5α-reductase type 1 inhibitor 3-oxo-4-aza-4,7β-dimethyl-16β-(4-chlorophenoxy)-5α-androstane (\"test compound\"), the following study was performed with the 5α-reductase inhibitor 3-oxo-4-aza-4,7β-dimethyl-16β-(4-chlorophenoxy)-5α-androstane and the progesterone antagonist RU-486.\n(§2) Fifty-six pregnant female Sprague-Dawley rats (Charles River Laboratories, Raleigh, N.C.), approximately 10.5 weeks old weighing from 212 to 319 grams were employed in the study. They were fed and housed as described in EXAMPLE 1. The females were assigned to the following groups based on a weight independent random allocation scheme:\nControl (Control article)\ntest compound @ 20 mg/kg/day\n(§3) A dose of 10 mg/kg off RU-486 was selected based on the studies of Abdellilah et al., Progesterone and Mifepristone modify principally the response of circular myometrium to oxytocin in preparturient rats: comparison with response to acetylcholine and to calcium J. Pharmacol. and Exp. Therp.\n(§4) The drugs were administered by oral gavage. The control article and vehicle consisted of 0.5% methylcellulose in deionized water with 0.02% sodium lauryl sulfate (SLS) and were prepared on a weekly basis and refrigerated when not in use. The test compound formulation (4 mg/mL, in vehicle) was prepared on a weekly basis and was refrigerated when not in use. The RU-486 formulation (2 mg base compound/mL, in 0.5% methylcellulose in deionized water) was prepared on a daily basis."}, "[2]": {"test_system": "parturition in the rat", "test": "Effect of test compound on parturition in the rat, dosed GD 6 through LD 20 (Example 1)", "conditions": "for Mean Length of Gestation ± SD: oral gavage", "from_the_text": "Effect of the 5α-reductase type 1 inhibitor 3-oxo-4-aza-4,7β-dimethyl-16β-(4-chlorophenoxy)-5α-androstane on parturition in the rat\nFifty female Sprague-Dawley rats (Charles River Laboratories, Raleigh, N.C.) approximately 11 weeks old, weighing from 211 to 297 grams were assigned to the present study. The female rats were housed singly in stainless steel hanging cages prior to and after cohabitation with a male of the same strain. During cohabitation, females were caged with untreated males of the same strain in a ratio of 1 female: 1 male. On Gestational Day (GD) 15 to 17, females were transferred to individual clear polycarbonate boxes containing Beta-Chip bedding in preparation for delivery and in which they remained with their litters throughout the lactation period. Room temperature was maintained between 19.4° and 25.0° C.; room humidity was maintained between 40 and 60% relative humidity, and room lights were set for alternating 12-hour periods of light and dark throughout the study. All rats had free access to PMI Certified Rodent Diet #5002 and tap water throughout the study.\nVehicle consisted of 0.5% methylcellulose in deionized water with […] sodium laurel sulfate (SLS) and was prepared on a weekly basis and refrigerated when not in use.\nThe high dose formulation of 3-oxo-4-aza-4,7β-dimethyl-16β-(4-chlorophenoxy)-5α-androstane (\"test compound\") (4 mg/mL, in vehicle) was prepared on a weekly basis and was refrigerated when not in use. All lower does formulations (0.5, 1.0 and 2.0 mg/mL) were prepared on a daily basis by diluting the high dose preparation with the vehicle. Ten females were randomly allocated to each of the following treatment groups: Control, 2.5 mg test compound/kg/day, 5.0 mg test compound/kg/day, 10 mg test compound/kg/day, 20 mg test compound/kg/day. The formulation was administered by oral gavage in a dosage volume of 5 ml/kg based on the most recent body weight. Females were treated once daily with the dose above from GD 6 through LD (lactation day) 20.\nEach female was housed with one untreated male of the same strain. […] The day of finding the plugs and/or sperm was considered GD 0.\nFrom GD21 until the completion of delivery (LD 0), each pregnant female was observed on four occasions throughout the day. On GD 24, females were observed twice at 7:30 am and 10:00 am. The onset and completion of delivery and any signs of difficulty in parturition were noted. Those females that had completed delivery at the first observation of the day were assigned a whole day value for the length of gestation (e.g. 21.0 or 22.0 days). Those females that completed delivery during the workday were assigned a half day value (e.g. 21.5 or 22.5 days)."}, "[3]": {"test_system": "serum progesterone", "test": "Serum progesterone in pregnant rats (Example 3)", "conditions": "20 mg/kg/day", "method": "as §1, §2, §3, §4"}}, "note": "Where “and” joins values, the source holds several entries; their conditions need not be identical. Identical values can stand only once. Entries after “also recorded” stand apart in the source; their conditions may differ."}
{"smiles": "C[C@H]1C[C@H]2N(C)C(=O)CC[C@]2(C)[C@H]2CC[C@]3(C)C[C@@H](Oc4ccc(Cl)cc4)C[C@H]3[C@H]12", "note": "[test compound, 3-oxo-4-aza-4,7β-dimethyl-16β-(4-chlorophenoxy)-5α-androstane]", "values": [{"measurement": "number of females completing parturition", "setting": "[1]; delivery day GD 22.0", "result": 1}, {"measurement": "number of females completing parturition", "setting": "[1]; delivery day GD 23.0", "result": 2}, {"measurement": "number of females completing parturition", "setting": "[1]; delivery day GD 24", "result": 3}, {"measurement": "Sacrificed Early (on GD 24 due to failure to initiate or complete parturition)", "setting": "[1]", "result": 7}, {"measurement": "females that failed to initiate or complete parturition", "setting": "[1]", "result": "drug related increase in females that failed to initiate or complete parturition"}, {"measurement": "Mean Length of Gestation ± SD", "setting": "[1]; only females completing delivery, 20 mg/kg/day", "result": "23.3 days and 23.3 ± 0.8 days"}, {"measurement": "number of females completing parturition", "setting": "[2]; 2.5 mg/kg/day, delivery day GD 22.0", "result": 2}, {"measurement": "number of females completing parturition", "setting": "[2]; 2.5 mg/kg/day, delivery day GD 22.5", "result": 7}, {"measurement": "Mean Length of Gestation ± SD", "setting": "[2]; 2.5 mg/kg/day", "result": "22.8 ± 0.4", "unit": "days"}, {"measurement": "Sacrificed GD 24 due to failure to initiate or complete parturition", "setting": "[2]; 5.0 mg/kg/day", "result": 3}, {"measurement": "number of females completing parturition", "setting": "[2]; 5.0 mg/kg/day, delivery day GD 22.0", "result": 2}, {"measurement": "number of females completing parturition", "setting": "[2]; 5.0 mg/kg/day, delivery day GD 22.5", "result": 2}, {"measurement": "number of females completing parturition", "setting": "[2]; 5.0 mg/kg/day, delivery day GD 23.0", "result": 2}, {"measurement": "Mean Length of Gestation ± SD", "setting": "[2]; 5.0 mg/kg/day", "result": "22.7 ± 0.7", "unit": "days"}, {"measurement": "Sacrificed GD 24 due to failure to initiate or complete parturition", "setting": "[2]; 10.0 mg/kg/day", "result": 3}, {"measurement": "number of females completing parturition", "setting": "[2]; 10.0 mg/kg/day, delivery day GD 22.5", "result": 2}, {"measurement": "number of females completing parturition", "setting": "[2]; 10.0 mg/kg/day, delivery day GD 23.0", "result": 3}, {"measurement": "Mean Length of Gestation ± SD", "setting": "[2]; 10.0 mg/kg/day", "result": "22.8 ± 0.3", "unit": "days"}, {"measurement": "Sacrificed GD 24 due to failure to initiate or complete parturition", "setting": "[2]; 20 mg/kg/day", "result": 6}, {"measurement": "number of females completing parturition", "setting": "[2]; 20 mg/kg/day, delivery day GD 22.5", "result": 1}, {"measurement": "number of females completing parturition", "setting": "[2]; 20 mg/kg/day, delivery day GD 23.0", "result": 3}, {"measurement": "Mean Length of Gestation ± SD", "setting": "[2]; 20 mg/kg/day", "result": "22.9 ± 0.2", "unit": "days"}, {"measurement": "failure to initiate or complete parturition", "setting": "[2]; 5, 10 and 20 mg/kg/day", "result": "treatment related increases in the failure to initiate or complete parturition; also recorded: drug-related increases in the incidence of females that failed to initiate or complete parturition"}, {"measurement": "length of gestation", "setting": "[2]; all drug-treated groups, 2.5-20 mg/kg/day", "result": "treatment-related increases in the length of gestation"}, {"measurement": "mean serum progesterone, times above control group 1", "setting": "[3]; GD 15", "result": "approximately 1.6 times"}, {"measurement": "mean serum progesterone, times above control group 1", "setting": "[3]; GD 17", "result": "~1.4", "unit": "times"}, {"measurement": "mean serum progesterone, times above control group 1", "setting": "[3]; GD 19", "result": "approximately 1.6 times"}, {"measurement": "mean serum progesterone, times above control group 1", "setting": "[3]; GD 21", "result": "~3.3", "unit": "times"}, {"measurement": "correlation of individual serum progesterone values on GD 21 and failure to initiate or complete parturition", "setting": "[3]; Group 3", "result": "positive correlation"}]}
